According to article PMC12196235, “Enhancing the Pharmacological Properties of Triterpenes Through Acetylation: An Anticancer and Antioxidant Perspective” (Molecules, 2025):
Where “and” joins values, the source holds several entries; their conditions need not be identical. Equal entries are not always repeated. Where two headings read alike, the source gives them in different places.

What was measured:
[1] = test system: MCF-7 (human breast carcinoma); settings: ref 55; read-out: anticancer IC50 (MCF-7); cited from earlier work
[2] = test system: SKOV-3 (human ovarian carcinoma); assay: MTT assay, SKOV-3; assay type: cell-based
Protocol: (§1) All the cell lines and mediums were obtained from the American Type Culture Collection (ATCC) supplied by LGC-Standards (Lomianki, Poland). Human cancer cell lines were cultured as follows: HeLa (human cervix carcinoma) and KB (human oral squamous carcinoma) lines were cultured in DMEM (Dulbecco’s Modified Eagle’s Medium); MCF-7 (human breast carcinoma) and A-549 (human lung carcinoma) were cultured in RPMI 1640 medium; PC-3 (human prostate carcinoma) was cultured in F-12K medium; SKOV-3 (human ovarian cystadenocarcinoma) was cultured in McCoy’s modified medium; HDF (human normal dermal fibroblasts) was cultured in Fibroblast Basal Medium. Each medium was supplemented with 10% fetal bovine serum, 1% L- glutamine and 1% penicillin/streptomycin solution. The cell lines were kept in an incubator at 37 °C.
(§2) All the tested cell lines (HeLa, KB, MCF-7, A-549, PC-3, SKOV-3 and HDF) were subjected to MTT assay. In short, this assay is based on the reaction between mitochondria enzymes (dehydrogenases) of tested cell lines and 3-(4,5-dimethylthiazol-2-yl)-2,5-diphenyltetrazolium bromide (MTT). The final product of this reaction gives violet formazan crystals. The number of live cells is proportional to the amount of formazan and is represented by the violet dye reagent. The details of the experiments are given in [19].

CUPRAC antioxidant assay = settings: calculated from Trolox standard curve
Protocol: The results are presented as % inhibition of the copper(II) ions and Trolox equivalent calculated from the standard curve (Figure 9) and as % inhibition of the DPPH radical and Trolox equivalent, calculated from the standard curve (Figure 10).
The CUPRAC reagent (7.5 mM ethanolic 96% neocuproine solution, 10 mM CuCl2 × H2O solution and an ammonium acetate buffer of pH 7.0) and DPPH reagent (2,2-diphenyl-1-picrylhydrazyl 0.2 mM solution) were applied.
The CUPRAC method measures the reducing power of a sample by quantifying its ability to convert the Cu-neocuproine reagent complex to the Cu(I) form. In contrast, the DPPH assay relies on the ability of an antioxidant to donate a hydrogen atom or an electron to the stable DPPH radical, resulting in its reduction and subsequent color change. The results are presented as % inhibition of the copper(II) ions and Trolox equivalent calculated from the standard curve (Figure 9) and as % inhibition of the DPPH radical and Trolox equivalent, calculated from the standard curve (Figure 10). The spectroscopic detection in CUPRAC and DPPH assays was conducted with Synergy H1 Multi-Mode Microplate Reader (BioTek Instruments, Inc., Winooski, VT, USA). The details of the experiments are given in [102].

[3] = test system: MCF-7 (human breast carcinoma); settings: MTT assay, data published earlier, read-out: IC50 (±SD), MCF-7; cited from earlier work
[4] = test system: PC-3 (human prostate carcinoma); assay: MTT assay, PC-3; assay type: cell-based
Protocol: as §1, §2

[5] = test system: MCF-7 (human breast carcinoma); assay: MTT assay, MCF-7; assay type: cell-based; settings: IC50 HDF / IC50 MCF-7
Protocol: as §1, §2

[6] = test system: A-549 (human lung carcinoma); settings: MTT assay, data published earlier, read-out: IC50 (±SD), A-549; cited from earlier work
[7] = test system: HeLa (human cervical epithelioid carcinoma); settings: MTT assay, data published earlier, read-out: IC50 (±SD), HeLa; cited from earlier work
[8] = test system: A-549 (human lung carcinoma); assay: MTT assay, A-549; assay type: cell-based; settings: IC50 HDF / IC50 A-549
Protocol: as §1, §2

[9] = test system: HDF (human dermal fibroblasts); assay: MTT assay, normal HDF; assay type: cell-based; settings: Homo sapiens, Fibroblast, read-out: IC50 (±SD), HDF
Protocol: as §1, §2

[10] = test system: KB (human oral squamous carcinoma); settings: MTT assay, data published earlier; cited from earlier work
[11] = test system: MDA MB-231 (human epithelial adenocarcinoma); design: method as in doi:10.1002/slct.201803101; settings: ref 56; read-out: anticancer IC50 (MDA MB-231); cited from earlier work
[12] = test system: HeLa (human cervical epithelioid carcinoma); assay: MTT assay, HeLa; assay type: cell-based; settings: IC50 HDF / IC50 HeLa
Protocol: as §1, §2

[13] = test system: HeLa (human cervical epithelioid carcinoma); settings: ref 56; read-out: anticancer IC50 (HeLa); cited from earlier work
[14] = test system: KB (human oral squamous carcinoma); assay: MTT assay, KB; assay type: cell-based; settings: IC50 HDF / IC50 KB
Protocol: as §1, §2

[15] = test system: A-549 (human lung carcinoma); settings: ref 56; read-out: anticancer IC50 (A-549); cited from earlier work

SMILES: C=C(C)[C@@H]1CC[C@]2(C)CC[C@]3(C)[C@H](CC[C@@H]4[C@@]5(C)CC[C@H](O)C(C)(C)[C@@H]5CC[C@]43C)[C@@H]12 [6a, lupeol]
- IC50 [1]: 80 µM
- IC50 ([2]; Homo sapiens, SK-OV-3, MTT assay, SKOV-3, read-out: IC50 (±SD), SKOV-3): 14.6 µM
- Selectivity index (SI), SKOV-3 ([2]; IC50 HDF / IC50 SKOV-3): 1.99
- Trolox Equivalent, CUPRAC Assay (CUPRAC antioxidant assay): 0.136 mg/mL and 0.136 ± 0.00593 mg/mL
- IC50 [3]: 51.8 µM
- IC50 ([4]; Homo sapiens, MTT assay, PC-3, read-out: IC50 (±SD), PC-3): 14.5 µM
- Selectivity index (SI), PC-3 ([4]; IC50 HDF / IC50 PC-3): 2.00
- Selectivity index (SI), MCF-7 [5]: 0.56
- IC50 [6]: 45.7 µM
- IC50 [7]: 37.7 µM
- Selectivity index (SI), A-549 [8]: 0.63
- IC50 [9]: 29 µM
- IC50 [10]: 51.2 µM
- IC50 [11]: 46.1 µM
- Selectivity index (SI), HeLa [12]: 0.77
- IC50 [13]: 31.9 µM
- Selectivity index (SI), KB [14]: 0.57
- IC50 [15]: 64.8 µM
